{
  "source": "patent US20260015333A1",
  "about": "“COMPOUNDS AND METHODS FOR INHIBITION OF THE EVOLUTION OF […]” (priority 2022, published 2026)",
  "key": {"Mfd [1]": {"molecular_target": "T1, Mfd (Salmonella typhimurium, UniProt Q8ZQ01)", "T1 sequence (Q8ZQ01 entry or part of it)": "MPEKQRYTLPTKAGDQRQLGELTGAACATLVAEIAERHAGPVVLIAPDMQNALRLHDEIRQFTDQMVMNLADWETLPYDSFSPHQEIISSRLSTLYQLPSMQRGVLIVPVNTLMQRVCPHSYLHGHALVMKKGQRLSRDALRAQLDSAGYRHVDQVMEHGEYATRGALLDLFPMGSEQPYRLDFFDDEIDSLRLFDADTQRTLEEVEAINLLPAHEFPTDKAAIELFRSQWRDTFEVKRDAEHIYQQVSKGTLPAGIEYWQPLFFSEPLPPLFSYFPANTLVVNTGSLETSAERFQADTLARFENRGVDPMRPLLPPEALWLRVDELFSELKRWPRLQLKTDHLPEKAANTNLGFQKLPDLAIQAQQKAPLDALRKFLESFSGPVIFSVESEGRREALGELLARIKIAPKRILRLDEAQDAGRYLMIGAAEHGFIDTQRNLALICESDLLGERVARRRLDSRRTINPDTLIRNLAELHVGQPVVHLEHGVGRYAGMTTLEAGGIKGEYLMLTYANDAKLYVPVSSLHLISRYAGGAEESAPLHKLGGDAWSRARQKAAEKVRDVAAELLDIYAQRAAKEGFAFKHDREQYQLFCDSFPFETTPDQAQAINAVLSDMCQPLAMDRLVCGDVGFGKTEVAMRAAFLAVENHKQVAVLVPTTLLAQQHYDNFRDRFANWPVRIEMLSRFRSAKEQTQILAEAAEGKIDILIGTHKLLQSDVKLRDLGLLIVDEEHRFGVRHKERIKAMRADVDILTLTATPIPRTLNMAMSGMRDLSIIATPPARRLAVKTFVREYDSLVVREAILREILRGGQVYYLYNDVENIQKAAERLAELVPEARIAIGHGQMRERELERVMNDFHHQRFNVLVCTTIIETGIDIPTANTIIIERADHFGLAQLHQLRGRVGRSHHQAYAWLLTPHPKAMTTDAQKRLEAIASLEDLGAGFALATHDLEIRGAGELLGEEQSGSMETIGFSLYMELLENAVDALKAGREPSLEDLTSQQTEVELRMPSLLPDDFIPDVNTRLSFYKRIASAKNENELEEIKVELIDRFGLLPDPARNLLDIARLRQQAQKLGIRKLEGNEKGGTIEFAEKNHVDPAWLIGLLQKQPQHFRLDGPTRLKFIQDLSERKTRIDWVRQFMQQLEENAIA", "assay": "Binding affinity analysis by microscale thermophoresis", "design": "species or system S. typhimurium", "details": "labeled Mfd 50 nM", "procedure": "FIGS. 2A-2D depict how ARM-1 affects Mfd's biochemical activity. FIG. 2A depicts how the kd of ARM-1 was determined using microscale thermophoresis. Data shown represent a minimum of three independent experiments. FIG. 2B depicts a NADH-coupled ATPase assay. ATP hydrolysis by Mfd was coupled to NADH oxidation. Phosphoenolpyruvate is converted to pyruvate by pyruvate kinase, transferring a phosphate group onto ADP, which is only present in the reaction following ATP hydrolysis by Mfd. Pyruvate is then converted to lactate by lactate dehydrogenase, oxidizing NADH to NAD^+. Absorbance at 340 nm by NADH is used to monitor the reaction. Data shown represent a minimum of 3 biological replicates. FIG. 2C depicts a transcription roadblock assay. A P32-labled 176 bp PCR fragment was incubated with E. coli RNAP along with saturating concentrations of ATP, GTP, and UTP. 100 nM S. typhimurium ST19 Mfd preincubated with indicated concentrations of ARM-1 was added and the reaction allowed to proceed for 6 minutes. DNA products were then resolved on a polyacrylamide gel and analyzed by phosphorimaging. […] Quantification of these gels is shown below each lane. […]\nMicroscale thermophoresis was performed on a Monolith (NanoTemper). […] MST experiments were performed under default settings apart from fluorescence intensity set to 100%. […]"}, "Mfd [2]": {"molecular_target": "T1, Mfd", "assay": "Translocase assay (in vivo luminescence reporter system)", "type": "cell-based, S. typhimurium", "excerpt": "FIGS. 1A-1C depict an in vivo high throughput screen identifing lead compound ARM-1. FIG. 1A is a schematic of in vivo screen design. In the upper panel, when Mfd is present, RNAP complexes stalled at the lacI-bound operator sequence are quickly removed, resulting in little to no transcription of the lux operon and low luminescence output. In the lower panel, when Mfd is either absent or inhibited, RNAP complexes stalled at the operator are not removed and are able to proceed during temporary dissociation of LacI, resulting in relatively high levels of luminescent output. FIG. 1B depicts the structure of the compound, ARM-1. […] Relative luminescence is normalized to no compound, solvent control, and 0.5% DMSO. *p<0.05 ***p<0.001.\nIn order to determine if Mfd's activity and/or RNAP termination function could be inactivated through the use of a small molecule, a high-throughput in vivo screen of roughly 250,000 compounds was conducted. […] The reporter system consists of one plasmid with a lac operator (lacO) encoded directly upstream of the lux operon which expresses proteins that produce luciferase, leading to easily detectable luminescence. […] The LacI protein which binds to lacO is a barrier to transcription; RNAP is unable to readily pass the bound protein and therefore, the transcription machinery stalls. […]"}},
  "note": "pKd: −log10 of the molar value.",
  "data": [
    {"smiles": "Cc1cc(Br)ccc1-c1ccc(CNCCCN(C)C)o1", "note": "[ARM-1, N^1-((5-(4-bromo-2-methylphenyl)furan-2-yl)methyl)-N^3,N^3-dimethylpropane-1,3-diamine]", "values": [
      {"measurement": "pKd", "setting": "Mfd [1]", "value": 5.37},
      {"measurement": "effect on luminescence in cells lacking Mfd", "setting": "Mfd [2]", "value": "no effect"}
    ]}
  ]
}
